This is an account of results in patent US20140322198A1, “COMPOSITION COMPRISING VICENIN-2 HAVING A BENEFICIAL EFFECT ON NEUROLOGICAL AND/OR COGNITIVE FUNCTION” (priority 2011, published 2014).

The subject of test [1] is murine frontal cortex networks. Kind of test: Pattern recognition and classification of MEA activity patterns against NeuroProof database (105 substances). The class given is cell-based, mice. The conditions noted are these: for % of data records classified as reference substance: AUC-V, all.
Experimental: Afterwards, a further analysis was carried out through a pattern-recognition analysis and through comparison with NeuroProof database to determine relevant mechanisms involved in the frontal cortex activity pattern induced changes by each substance.
To clarify the mode of action of the test substance on the activity of cortical networks these experiments were further analyzed using methods of pattern recognition. For each stable concentration activity phase the 200 spike train parameters were normalized by the native reference activity.
Using a feature selection algorithm, on the basis of the reference substances, the 40 most descriptive parameters for all 200 spike train parameters were selected. The rankings of activity features using various score methods based on classification experiments and comparing their total correct predictions were calculated. In this manner, the best results for a MDL (minimal description length) modified algorithm were obtained. A training data set with these 40 spike train parameters was established in the form of data records from the reference substances. An artificial neuronal network, multi layer feed forward network and back propagation algorithm without hidden units was then trained. The respective data records of the four substances were all subsequently classified. A classification against 105 substances in the database was carried out.
For a further test, the system named is TNFα. As to the kind of experiment: Ex vivo TNFα secretion in LPS-stimulated human whole blood. The conditions noted are these: ex vivo study, statement in words. The class given is cell-based. The method, then: TNF alpha secretion [pg/ml] after co-incubation with LPS and Perilla extract of different concentration (1 μg/ml, 2.5 μg/ml and 50 μg/ml) against 450 μg/ml a benchmark blend, containing e.g. Boswellia extract, Omega 3 fatty acids, ALA and Curcumin. This study investigated the efficacy of Perilla extract comprising vicenin 2 to contribute to reduce TNFα levels. The study was designed as an ex vivo study, where human whole blood samples were treated with LPS, a bacterial blend, to stimulate inflammation which leads to an increase of the cytokine TNFα. Furthermore, the effect to reduce TNFα by Perilla extract was measured in comparison to a negative and positive control.

Test [2] relates to murine frontal cortex networks. Kind of test: Acute effects on cortical network activity (spike rate), MEA-neurochip multichannel recording. In kind it is cell-based, mice. The method, then:
Purpose of this example was the evaluation of the acute neuroactive effects of vicenin 2 (named AUC-V) and of Perilla extract (named AUC-P) comprising and standardized on Vicenin 2 on the neuronal activity of murine frontal cortex networks in vitro by means of electrophysiological multi-channel recordings. In this system, cells or tissues are grown directly on the chip surface and communicate via chemical and electrical signals. The MEA-neurochip allows the non-invasive, long-term, multisite recording of electrical signal patterns of primary neuronal networks. Said MEA-neurochip technology enables the characterization of network activity pattern on the single-cell action-potential level and on the level of complex neuronal networks as the basic functional units. This can also be used as a test system for investigating neuro-physiological properties of compounds. Despite the complexity, the neurophysiological action profiles of neuroactive compounds are sensitive and selective as well as robust and stable, allowing a precise pharmacological “fingerprinting” and the creation of a database of information on well-characterized neuroactive substances. The multiparametric description of the activity pattern changes caused by treatment of a brain-region-specific neuronal network is a sophisticated approach to quantify the complex effects of neuroactive agents, of unknown compounds, and of complex mixtures such as biological extracts. Correlation with well-known neuroactive substances and their specific pattern, available in specific databased, provides novel insights into the possible pharmacological and physiological mechanisms of modes of action of herbal preparations or isolated substances. […] The recorded electrical activity patterns were characterized by 200 features and their changes were statistically evaluated. […] Cultures were incubated at 37° C. in a 10% CO2 atmosphere until ready for use, which usually is four weeks to three months after seeding. […]

In brackets after ≈: the same amount, converted by molar mass. Entries after “also recorded” stand apart in the source; their conditions may differ.

The term EC50 denotes the concentration at which the effect is half-maximal. In the case of `O=c1cc(-c2ccc(O)cc2)oc2c([C@@H]3O[C@H](CO)[C@@H](O)[C@H](O)[C@H]3O)c(O)c([C@@H]3O[C@H](CO)[C@@H](O)[C@H](O)[C@H]3O)c(O)c12` [vicenin 2, 5,7-Dihydroxy-2-(4-hydroxyphenyl)-6,8-bis[(2S,3R,4R,5S,6R)-3,4,5-trihydroxy-6 (hydroxymethyl)oxan-2-yl]chromen-4-one], the “% of data records classified as reference substance” value is given as 15% in test [1] (classified as Amisulpride); 12% in test [1] (classified as Atropinemethylbromide); 11% in test [1] (classified as DPDPE); 14% in test [1] (classified as Enkephalin); 15% in test [1] (classified as Eserine); 12% in test [1] (classified as Indatraline). Also, the “% of data records classified as reference substance” value in test [1] (classified as Modafinil) is 12%; in test [1] (classified as Nicotine) it was 12%; in test [1] (classified as Olanzapine), 17%; in test [1] (classified as Sodium dodecyl sulfate) it was 12%. Further, in test [1] (classification against reference substances (Amisulpride, Muscimol, Enkephalin)), the “activity identified by the classification” value is “sedative and anxiolytic activity; also recorded: enkephalin-like activity”. Further, the “electrophysiological multi-channel recording pattern compared with positive controls” value in test [1] (similarity to reference substances, in words) was “comparable with the pattern of the positive control eserine and nicotine; also recorded: comparable with the pattern of the positive control of carboxolone; also recorded: effects similar to amisulpride”. Besides, the anti-inflammatory effects result with TNFα is on record as “anti-inflammatory effects”. Further, in test [2] (Mus musculus, spike rate, frontal cortex networks in vitro, 9 accumulating concentrations, read-out: EC50 of decrease of the cortical network activity), the EC50 turned out to be 0.002 ng/mL (≈ 0.00336 nM). Further, the “effects on burst structure and oscillatory behaviour of the network” value in test [2] (cortical network activity pattern) is recorded as “no affects on the burst structure, however on the oscillatory behaviour of the network”. Further, in test [2] (cortical network activity, native activity = 100%), the “maximum decrease to % of the native activity” value is given as 80%.
